# Data as given in patent US5578567A, “Nasal pharmaceutical composition” (Sandoz Ltd., priority 1990, dated 1996).
# Assay: bioavailability study, serum [1-38]hPTH by radioimmunoassay
# Assay type: in vivo, rhesus monkeys
# Conditions: monkeys, nasal administration
# Experimental: Compositions of Examples 1A, 6 and 9 are administered nasally to rhesus monkeys (n=5) at a dose of 100 μg/kg [1-38]hPTH. A reference composition comprising
# and buffered to pH 5.5 with Na2 HPO4 /citric acid is administered i.v. at a dose of 10 μg/kg.
# Blood is taken after 10, 20, 30, 45, 60, 90, 240 and 360 min after administration and stored deep frozen at -80° C. until analysed. [1-38]hPTH concentrations in serum are analysed using radioimmunoassay techniques providing a limit of detection of 0.2-0.1 ng/ml. In addition urine is collected and stored deep frozen at -80° C. until analysis of cAMP by RIA techniques.
smiles,measurement,value
"CC[C@H](C)[C@H](NC(=O)[C@H](CCC(=O)O)NC(=O)[C@H](CO)NC(=O)[C@@H](NC(=O)[C@@H](N)CO)C(C)C)C(=O)N[C@@H](CCC(N)=O)C(=O)N[C@@H](CC(C)C)C(=O)N[C@@H](CCSC)C(=O)N[C@@H](Cc1c[nH]cn1)C(=O)N[C@@H](CC(N)=O)C(=O)N[C@@H](CC(C)C)C(=O)NCC(=O)N[C@@H](CCCCN)C(=O)N[C@@H](Cc1c[nH]cn1)C(=O)N[C@@H](CC(C)C)C(=O)N[C@@H](CC(N)=O)C(=O)N[C@@H](CO)C(=O)N[C@@H](CCSC)C(=O)N[C@@H](CCC(=O)O)C(=O)N[C@@H](CCCNC(=N)N)C(=O)N[C@H](C(=O)N[C@@H](CCC(=O)O)C(=O)N[C@@H](Cc1c[nH]c2ccccc12)C(=O)N[C@@H](CC(C)C)C(=O)N[C@@H](CCCNC(=N)N)C(=O)N[C@@H](CCCCN)C(=O)N[C@@H](CCCCN)C(=O)N[C@@H](CC(C)C)C(=O)N[C@@H](CCC(N)=O)C(=O)N[C@@H](CC(=O)O)C(=O)N[C@H](C(=O)N[C@@H](Cc1c[nH]cn1)C(=O)N[C@@H](CC(N)=O)C(=O)N[C@@H](Cc1ccccc1)C(=O)N[C@H](C(=O)N[C@@H](C)C(=O)N[C@@H](CC(C)C)C(=O)NCC(=O)O)C(C)C)C(C)C)C(C)C [[1-38]hPTH, hPTH[1-38]]","serum levels reached, based on serum concentration and cumulative urinary excretion",therapeutic [1-38]hPTH serum levels are achieved
